Test results: US20170183318A1, “AMIDE COMPOUNDS, METHODS FOR PREPARATION, AND USE THEREOF AS AGENTS FOR THE TREATMENT AND PREVENTION OF DISEASES CAUSED BY RNA- AND/OR DNA-CONTAINING VIRUSES, AND CONCOMITANT DISEASES” (OBSCHESTVO S OGRANICHENNOI OTVETSTVENNOSTIYU …, priority 2014, published 2017)
Like-named read-outs stand apart in the source and are kept apart here. Starred links: 1 amine or outer side, 2 acyl side, 3 side chain; linkers in the order of their positions; H or OH if unused. Non-standard residues stand in square brackets, D forms with d. Residues, ends and D or L forms follow the SMILES beside them. ξ: configuration not given here. Glutaryl = O=C(CCCC(=O)[*:2])[*:1]; ξH = NC(Cc1c[nH]cn1)C(=O)O

How the values were obtained:
[1] = test system: herpes simplex virus belonging to antigenic type 2; test: Murine model of experimental herpetic meningoencephalitis (mortality); format: in vivo, white outbred mice; settings: Mus musculus, po, 336 h
Procedure: In the study, herpes simplex virus belonging to antigenic type 2 was used. White outbred mice weighing 7-8 g were infected i/c (intracerebrally) in a volume of 0.05 ml/mouse comprising a dose of 10LD50. The infectious dose of the virus that caused 100% mortality in mice was 10LD50. Each experimental group comprised 20 mice. Intact animals served as control and were hold in a separate room under the same conditions as the experimental animals. The antiviral activity of the compounds of general formula I was studied by oral administration of the compounds to infected mice once daily at a dose of 30 mg/kg/mouse 24, 48, 72, 96, and 120 hours after infection of the animals with the virus. The mice of the control group were administered placebo (0.2 mL of physiological solution) under the same conditions. The animals were monitored for 14 days after infection by registration the mouse death in the groups.
Each animal was subjected to once-daily observation. The observation included the assessment of general behavior and body condition of animals. The animals were handled according to the International Standards.
The activity of the compounds was evaluated by comparing mortality rates in the groups of animals administered a preparation and placebo.

[2] = Rat model of nasopharyngitis induced by formalin (nasal mucosa changes, cell elements in nasal lavage); format: in vivo; settings: Wistar rats, 18 mg/kg for 3 days; for Mucous membrane of nasal passages: Without changes (number of animals): number of animals out of n = 10, control 0 of 20; for Mucous membrane of nasal passages: Discharge mucus from the nasal passages (number of animals): number of animals out of n = 10, control 20 of 20
Procedure: Nasopharyngitis was induced by intranasal administration of formalin to each nasal passage of rats.
The administration of formalin to the nasal passages of rats leads to the dissemination of inflammation to adjacent tissues, resulting in a clinical pattern similar to the symptoms of nasopharyngitis in a human.
After an acclimatization period, the following groups were formed: • intact animals administered intragastrically a physiological solution in an amount of 0.2 ml, without induction of nasopharyngitis; • a control group consisted of animals administered intragastrically a physiological solution in an amount of 0.2 ml for 3 days after induction of nasopharyngitis; and • animals administered the studied compounds at a dose of 18 mg/kg for 3 days after induction of nasopharyngitis.
Clinical observation of each animal was performed every day at least twice daily.
The caused pathology was characterized by hyperplasia, increased number of caliciform cells, pronounced infiltration of mononuclear cells and leucocytes, and mucus hyperproduction by submucosal glands.
After euthanasia, the inflammation pattern in the nasal passages and throat was studied in each group of animals. The nasal passages were washed with 5 mL of physiological solution and the score of cell elements were counted in 1 μL.

[3] = test system: human respiratory syncytial virus (strain A2); test: Antiviral activity against RS virus in a murine model of suppressed immune system (lung edema); format: in vivo; settings: Balb/c mice, cyclophosphan-suppressed, RS-virus pneumonia; 30 mg/kg once daily for 5 days; M ± SD, n = 5; scores from possible 4
Procedure: Antiviral activity of the chemical compounds against human respiratory syncytial virus (strain A2, an infectious titer of 5×10^6 TCID50/mL) was assessed in a Balb/c murine model of viral pneumonia. The virus was inoculated to animals intranasally in a volume of 50 μL under brief ether anesthesia. The immune response in animals to RS virus was suppressed by intraperitoneal administration of cyclophosphan at a dose of 100 mg/kg 5 days before infection. The studied compounds were administered according to the treatment regimen once daily at a dose of 30 mg/kg for 5 days, starting 24 hours after infection. The activity of the compounds was determined by a reduction in edema of the lung infected with respiratory syncytial virus, compared to the control, on day 5 after infection.

[4] = test system: Coxsackie A2 virus (strain HCXV A2); test: Antiviral activity against Coxsackie virus in vivo (mortality and life expectancy of infected mice); settings: for inhibition in vivo at 30 mg/kg / mortality at 30 mg/kg: Mus musculus, po; for inhibition in vivo at 30 mg/kg: 168 h, vs virus control, read-out: Protective index (%); for inhibition in vivo at 30 mg/kg / Average life expectancy (days), Compared with control / Average life expectancy (days), Relative: 30 mg/kg orally once daily for 7 days; for mortality at 30 mg/kg: 360 h, read-out: Total mortality, %; for Average life expectancy (days), Compared with control: difference vs virus control; for Average life expectancy (days), Relative: mice infected with 10LD50 HCXV A2
Procedure: In the study a trypsin-dependent strain HCXV A2 was used, previously adapted and causing death in mice from Coxsackie virus infection.
The experiment was carried out in white mice weighing 6 to 7 g. The animals were infected intramuscularly with a dose of 0.1 mL/mouse. The used infectious dose causing mortality in mice was 10LD50.
The ability of compounds to provide a therapeutic effect was determined by the mortality rate of HCXV A2 virus-infected mice in the experimental group relative to the group of untreated animals.
The studied compounds and placebo were administered orally according to the treatment regimen. Normal saline solution was administered to mice as placebo. Intact animals served as a negative control and were hold in a separate room under the same conditions as the experimental animals.
For the experiment, groups were formed with 14-15 animals each. Compounds were administered at a dose of 30 mg/kg of body weight. The studied compounds were administered orally once daily for 7 days (first administration was made 24 hours after infection). The animals were monitored for 15 days during which the animals were weighed and the mortality rate was registered every day.

human virus hRSV = test: Antiviral activity against mouse-adapted RS virus (body weight; viral titer in lungs titrated in Hep-2 cells); format: in vivo, mice; settings: for hRSV in the lungs of mice, Day 5, lg / hRSV in the lungs of mice, Day 7, lg: 10% lung suspension titrated in Hep-2 cells (TCID); for hRSV in the lungs of mice, Day 5, lg / Body weight of the mice on day 5 after infection with hRSV (M ± SD) / hRSV in the lungs of mice, Day 7, lg / Body weight of the mice on day 7 after infection with hRSV (M ± SD): compounds 30 mg/kg, Ribavirin 40 mg/kg; for Body weight of the mice on day 5 after infection with hRSV (M ± SD) / Body weight of the mice on day 7 after infection with hRSV (M ± SD): orally once daily for 5 days, n = 6; for log reduction at 30 mg/kg: human respiratory syncytial virus, HEp-2, po
Procedure: Antiviral effectiveness of the chemical compounds against RSV in an experimental murine model in vivo was determined for human virus hRSV that was previously adapted to the growth in mouse lungs. The animals were infected with the virus at a dose of 0.5 log TCID50 intranasally under brief ether anesthesia in a volume of 0.05 ml/mouse. The studied compounds were administered orally once daily for 5 days according to the treatment regimen at a dose of 30 mg/kg. The first administration was made 24 hours after infection. Normal saline solution was administered to mice as placebo. Intact animals served as a negative control and were hold in a separate room under the same conditions as the experimental animals. Each experimental group comprised 12 animals.
The antiviral activity of the studied compounds was determined by the efficiency in the prevention of weight loss and by suppression of the reproduction of hRSV in the mouse lungs by measuring a viral titer in the experimental groups relative to the control on days 5 and 7 after infection.
In addition, the therapeutic action of the compounds of general formula I was determined by their ability to suppress the reproduction of hRSV in the mouse lungs on days 5 and 7 after infection. The viral titer was determined by the titration of a 10% lung suspension in Hep-2 cell culture. The result was registered 2 days after the incubation at 37° C. by TCID.

[5] = 120 h, read-out: Suppression of the reproduction of hRSV in the lungs of mice, Day 5, Δlg
[6] = 168 h, read-out: Suppression of the reproduction of hRSV in the lungs of mice, Day 7, Δlg

Row | SMILES | mortality at 30 mg/kg [1] | Mucous membrane of nasal passages: Without changes (number of animals) [2] | Mucous membrane of nasal passages: Discharge mucus from the nasal passages (number of animals) [2] | Degree of lung edema on day 5 after infection, score [3] | inhibition in vivo at 30 mg/kg [4] | mortality at 30 mg/kg [4] | Average life expectancy (days), Compared with control [4] | Average life expectancy (days), Relative [4] | hRSV in the lungs of mice, Day 5, lg (human virus hRSV) | Body weight of the mice on day 5 after infection with hRSV (M ± SD) (human virus hRSV) | hRSV in the lungs of mice, Day 7, lg (human virus hRSV) | Body weight of the mice on day 7 after infection with hRSV (M ± SD) (human virus hRSV) | log reduction at 30 mg/kg (human virus hRSV; [5]) | log reduction at 30 mg/kg (human virus hRSV; [6])
1 | O=C(O)CCCC(=O)NCCc1cc[nH]n1 [Compound 15] | 30% | 7 | 3 |  |  |  |  |  |  |  |  |  |  | 
2 | COC(=O)CNC(=O)C(Cc1c[nH]cn1)NC(=O)CCCC(=O)O (stereo not drawn) [Compound 193] (Glutaryl-[ξH]-Gly-OMe) | 25% | 6 | 4 | 0.80 ± 0.17 score | 45.3% | 40.1% | +14.2 days | 24.9 days |  |  |  |  |  | 
3 | COC(=O)C(CO)NC(=O)C(Cc1cnc[nH]1)NC(=O)CCCC(=O)O (stereo not drawn) [Compound 149] (Glutaryl-His-Ser-OMe; configuration not given here) | 25% | 5 | 5 |  | 27.2% | 53.3% | +8.9 days | 19.6 days | 2.6 ± 0.1 lg | 15.44 ± 0.31 | 2.3 ± 0.4 lg | 17.32 ± 0.59 | 1.9 ± 0.1 | 1.4 ± 0.4
4 | O=C(O)CCCC(=O)NCCc1cnccn1 [Compound 131] | 45% | 5 | 5 |  |  |  |  |  |  |  |  |  |  | 
5 | O=C(O)CCCC(=O)NCCC1CCCNC1 (stereo not drawn) [Compound 5] | 35% | 5 | 5 | 1.10 ± 0.19 score |  |  |  |  | 2.17 ± 0.37 lg | 16.02 ± 0.16 | 0.88 ± 0.31 lg | 17.78 ± 0.26 | 2.43 ± 0.37 | 2.93 ± 0.31
6 | O=C(O)CCCC(=O)NCCc1cn[nH]n1 [Compound 126] | 40% | 4 | 6 |  |  |  |  |  |  |  |  |  |  | 
7 | CC(NC(=O)C(Cc1cnc[nH]1)NC(=O)CCCC(=O)O)C(N)=O (stereo not drawn) [Compound 92] (Glutaryl-His-Ala-NH2; configuration not given here) | 25% | 6 | 4 |  |  |  |  |  |  |  |  |  |  | 
8 | NCCCC(=O)NCCCc1cccs1 [Compound 100] | 30% | 3 | 7 |  |  |  |  |  |  |  |  |  |  | 
9 | O=C(O)CCCC(=O)NCCC1CCNC1 (stereo not drawn) [Compound 1] |  |  |  | 1.3 ± 0.27 score |  |  |  |  | 2.88 ± 0.59 lg | 16.43 ± 0.14 | 1.46 ± 0.17 lg | 17.98 ± 0.26 | 1.73 ± 0.59 | 2.34 ± 0.17
10 | O=C(O)CCCC(=O)NCCC1CCNCC1 [Compound 7] | 20% | 6 | 4 |  |  |  |  |  |  | 17.17 ± 0.26 |  | 18.53 ± 0.55 |  | 
11 | O=C(O)CCCC(=O)NCCc1cscn1 [Compound 121] |  |  |  | 1.30 ± 0.60 score |  |  |  |  | 3.08 ± 0.47 lg | 16.35 ± 0.20 | 1.50 ± 0.14 lg | 17.38 ± 0.29 | 1.52 ± 0.47 | 2.09 ± 0.22
12 | O=C(O)CCCC(=O)NCCc1cocn1 [Compound 124] | 40% | 7 | 3 |  |  |  |  |  | 2.46 ± 0.22 lg | 16.43 ± 0.26 | 0.83 ± 0.37 lg | 16.37 ± 0.43 | 2.14 ± 0.22 | 2.97 ± 0.37
13 | CC(C)(CCC(=O)NCCc1cnc[nH]1)C(=O)O [Compound 44] | 40% | 4 | 6 |  | 55% | 28.6% | +20.1 days | 32.3 days |  |  |  |  |  | 
